Columns and labels:
[1] = tested on: collagenase obtained from Clostridium Histolyticum; assay: Target Binding affinity test for collagenase; details: ligands in non-stimulated M. alba root extract; moracenin B = reference ligand
Description: A root extract of Morus alba was prepared in accordance with the protocol described in Example 2.1. The Target Binding® method used was that of Example 2.3 which is described in patent application FR 1 670 545. The experimental protocol was as follows:
The target, a 6.25 mg/mL solution of collagenase obtained from Clostridium histolyticum, was prepared by dissolving lyophilized enzyme powder in 50 mM saline phosphate buffer with a pH of 7.5. The sample to be analyzed corresponded to the supernatant of the root extract obtained in accordance with Example 2.1. It could be centrifuged once again before use, at 21000 g for 15 min, in order to remove any traces of solid particles. A reference sample was also prepared by diluting the sample to be analyzed 10-fold in a solution of water and a quarter of the volume of acetonitrile.
1. Preconditioning step—Wells with a filtering membrane were preconditioned with a volume of 500 μL of a saline phosphate buffer which was passed through the membrane by centrifuging at 14000 g for 60 seconds.
2. Binding step—A volume of 92.5 μL of the solution obtained from the pretreatment step was mixed with 7.5 μL of the sample to be analyzed for 10 min in a plastic Eppendorf tube.
3. Washing step—The mixture of the enzyme and the sample to be analyzed was deposited in a well that had been preconditioned in the preconditioning step, then centrifuged at 14000 g until most of the solvent had been eliminated. The enzyme-ligand complexes remained on the surface of the filter membrane, then were re-suspended in a volume of 100 μL of the same saline phosphate buffer solution and centrifuged at 14000 g until the solvent had been eliminated. This procedure was repeated three times and eliminated all of the compounds that were not bound to the enzyme. 4. Separation step—The enzyme-ligand complexes retained in the filter were re-suspended in a volume of 10 μL of ultra-pure water then mixed with a volume of 30 μL of acetonitrile in order to denature and precipitate the enzyme and, at the same time, to liberate the ligands. The mixture was centrifuged at 21000 g for 10 min in order to separate the precipitate from the supernatant. 5. Analysis step—Said supernatant was analyzed by liquid phase chromatography coupled to a mass spectrometer. The reference sample was also analyzed in the same manner, using the same analytical conditions.
(§1) The UPLC-MS analysis was carried out in accordance with the protocol described in Example 1.

fungal tyrosinase = assay: Target Binding affinity test for tyrosinase (UPLC-MS of bound ligands)
Description: It is based on the principle of bringing the ligands and the target into contact in the liquid phase so that the ligands that have the greatest affinity with the target bind to it, elimination of the ligands that are not fixed, separation of the complexes in order to recover the ligands which have been fixed, then quantification of the latter. In a first step of the method, the extract and the target are mixed. The compounds of the extract compete for access to the binding sites of the target. The strongest compounds displace the weakest and are retained more effectively by the target. […] A reference sample was also prepared by diluting the sample to be analyzed 10-fold in a solution of water and a quarter of the volume of acetonitrile. […] Pre-conditioning step-Wells with a filtering membrane were pre-conditioned with a volume of 500 μL of an 85% solution of ammonium acetate and 15% of ethanol which was passed through the membrane by centrifuging at 14000 g for 60 seconds. 2. […] 3. Washing step-The mixture of the enzyme and the sample to be analyzed was deposited in a well that had been pre-conditioned in the pre-conditioning step, then centrifuged at 14000 g until most of the solvent had been eliminated. […] This procedure was repeated three times and eliminated all of the compounds that were not bound to the enzyme. 4. Separation step-The enzyme-ligand complexes retained in the filter were re-suspended in a volume of 10 μL of ultra-pure water, then mixed with a volume of 40 μL of acetonitrile in order to denature and precipitate the enzyme and, at the same time, to liberate the ligands. The mixture was centrifuged at 21000 g for 10 min in order to separate the precipitate from the supernatant. 5. Analysis step-Said supernatant was analyzed by liquid phase chromatography coupled to a mass spectrometer, also known by the acronym UPLC-MS. The reference sample was also analyzed in the same manner, using the same analytical conditions. The UPLC-MS analysis was carried out in accordance with the protocol described in Example 1. The chromatograms obtained are presented in FIGS. 3A and 3B and represent a signal intensity as a function of retention time in a column. […] Each peak is associated with one of the ligands present in the analyzed extract. The quantity associated with each ligand corresponds to the area of the peak. […] For each ligand, an affinity ratio, RACEi, was calculated as follows: [formula] where: NF is a normalization factor; […] the intensity of the analytical signal for the ligand CEi in the reference sample; ISeq,REF is the intensity of the analytical signal for the reference ligand REF (here, moracenin B) in the reference sample; […] the intensity of the analytical signal for the ligand CEi in the treated solution (the sample to be analyzed after steps 2 to 4 for binding and separation of the ligands) for the detached ligands; ISTB,REF is the intensity of the analytical signal for the reference ligand REF (here, moracenin B) in the treated solution (the sample to be analyzed after steps 2 to 4 for binding and separation of the ligands) for the detached ligands; RA, CEi is the relative affinity ratio (RA), representing an affinity of the ligand CEi for the target. The value of the ratio increases with affinity.

hyaluronidase = assay: Target Binding affinity test for hyaluronidase; details: ligands in non-stimulated M. alba root extract; moracenin B = reference ligand
Description: A root extract of Morus Alba was prepared in accordance with the protocol described in Example 2.1. The Target Binding® method used was that of Example 2.3 which is described in patent application FR 1 670 545. The experimental protocol was as follows: The target, a 5 mg/mL solution of hyaluronidase, was prepared by dissolving powdered lyophilized enzyme in 50 mM sodium phosphate, with a pH of 7.0. The extract corresponded to the supernatant obtained in accordance with Example 2.1. It could optionally be centrifuged once again before use, at 21000 g for 15 min, in order to eliminate the solid particles before use. A reference sample was also prepared by diluting the sample 10-fold in a solution of water and a quarter of the volume of acetonitrile.
1. Preconditioning step—Wells with a filtering membrane were preconditioned with a volume of 500 μL of a solution of 50 mM sodium phosphate, at a pH of 7.0 which was passed through the membrane by centrifuging at 14000 g for 60 seconds.
2. Binding step—The hyaluronidase preparation (5 mg/mL) was mixed with 7.5 μL of the root extract for 5 min in a plastic Eppendorf tube.
3. Washing step—the mixture of the enzyme and the root extract was deposited in a well that had been preconditioned in the preconditioning step, then centrifuged at 14000 g until most of the solvent had been eliminated. The enzyme-ligand complexes remained on the surface of the membrane of the filter then were re-suspended in a volume of 100 μL of the same solution of 50 mM sodium phosphate at a pH of 7.0, and centrifuged at 14000 g until the solvent had been eliminated. This procedure was repeated three times and eliminated all of the compounds that were not bound to the enzyme. 4. Separation step—The enzyme-ligand complexes retained in the filter were re-suspended in a volume of 10 μL of ultra-pure water then mixed with a volume of 40 μL of acetonitrile in order to denature and precipitate the enzyme and at the same time to liberate the ligands. The mixture was centrifuged at 21000 g for 10 min in order to separate the precipitate from the supernatant. 5. Analysis step—Said supernatant was analyzed by liquid phase chromatography coupled to a mass spectrometer, also known by the acronym UPLC-MS. The reference sample was also analyzed in the same manner, using the same analytical conditions.
as §1

[2] = target: T1, hyaluronidase originating from bull testicles (type IV-S) (Bos taurus, UniProt Q2YDK3); assay: Anti-hyaluronidase inhibiting activity, hyaluronic acid as substrate, precipitation with acidic BSA; type: biochemical
T1 construct: hyaluronidase originating from bull testicles (type IV-S); from tissue; host or cells: bull testicles
T1 sequence (Q2YDK3 36-553): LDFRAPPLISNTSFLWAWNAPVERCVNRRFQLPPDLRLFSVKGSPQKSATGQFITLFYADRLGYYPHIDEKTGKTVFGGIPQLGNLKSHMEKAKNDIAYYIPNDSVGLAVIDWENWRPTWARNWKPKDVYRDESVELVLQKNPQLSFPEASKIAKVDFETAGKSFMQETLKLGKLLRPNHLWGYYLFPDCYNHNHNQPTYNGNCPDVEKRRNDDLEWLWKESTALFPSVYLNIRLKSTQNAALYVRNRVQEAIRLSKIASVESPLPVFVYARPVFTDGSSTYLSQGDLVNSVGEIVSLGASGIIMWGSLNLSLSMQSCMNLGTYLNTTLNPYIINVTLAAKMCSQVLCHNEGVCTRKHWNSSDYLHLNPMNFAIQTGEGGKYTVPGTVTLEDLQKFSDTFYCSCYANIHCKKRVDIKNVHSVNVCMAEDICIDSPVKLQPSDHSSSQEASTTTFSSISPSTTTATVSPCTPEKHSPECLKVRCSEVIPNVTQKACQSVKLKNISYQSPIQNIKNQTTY
Description: A root extract of Morus Alba was prepared in accordance with the protocol described in Example 5. Hyaluronidase catalyzes the hydrolysis of hyaluronic acids into monosaccharides, disaccharides and short oligosaccharides. The measurement of the anti-hyaluronidase inhibiting activity was carried out using hyaluronic acid (HA) as a substrate in order to follow its reduction during the enzymatic reaction, the slope of the reduction of the concentration of HA during the reaction being proportional to the enzymatic activity.
The concentration of HA was measured in accordance with the following principle: in the presence of an acidic solution of bovine serum albumin, HA precipitates. Thus, in the case of the presence of HA, a precipitate is formed and in the case of complete hydrolysis of the HA, no precipitate is observed. Thus, the quantity of precipitation is proportion& to the HA content. […]
In order to follow the enzymatic degradation of the HA, a volume of 50 μl of RM was removed every 15 minutes, mixed with a volume of 250 μL of the solution of acidic BSA (acidic solution of bovine serum albumin: 24 mM sodium acetate, 79 mM acetic add and 0.1% (w/v) bovine serum albumin, pH 3.75) then incubated for 10 min at ambient temperature. The quantity of precipitate formed was then measured using a plate reader (diffusion of light at 600 nm). […]

Row | Structure (SMILES) | Relative affinity (RA) for collagenase [1] | Relative affinity (RA) for tyrosinase (fungal tyrosinase; ligands in non-stimulated M. alba root extract, moracenin B = reference ligand) | affinity for tyrosinase compared with the other compounds of the extract (in words) (fungal tyrosinase; peak areas of FIG. 3B / relative affinities) | Relative affinity (RA) for hyaluronidase (hyaluronidase) | inhibition at 10 µM [2]
1 | CC(C)=CCc1c(O)ccc(C(=O)C2C(c3c(O)cc(-c4cc5ccc(O)c(CC=C(C)C)c5o4)cc3O)C=C(C)CC2c2ccc(O)cc2O)c1O (centres unmarked) [Mulberrofuran T, mulberrofuran T] | 1.1 | 36.2 | greater affinity | 2.7 | 
2 | O=c1c(O)c(-c2ccc(O)c(O)c2)oc2cc(O)cc(O)c12 [quercetin, reference compound] |  |  |  |  | 15.6%
